# Reference: paper PMC10138577, “Prenylated Flavonoids with Selective Toxicity against Human Cancers” (International Journal of Molecular Sciences, 2023)
# Legend:
# Format in all cases: cell-based
# [1] = system: A549 human lung adenocarcinoma cells; test: In vitro antiproliferative assay (SRB), A549; conditions: for IC50: Homo sapiens, A549, 72 h exposure, SRB, mean ± SD; for Calculated selectivity index SIB: IC50 BALB/3T3/IC50 A549; for Calculated selectivity index SIA: IC50 HLMEC/IC50 A549
# Text: (§1) The following established in vitro cell lines were applied: human breast adenocarcinoma (MCF-7 and SK-BR-3), human breast ductal carcinoma (T47D), human prostate adenocarcinoma (PC-3), human prostate carcinoma (Du145), human colorectal adenocarcinoma (HT-29 and LoVo), doxorubicin-resistant human colorectal adenocarcinoma (LoVo/Dx), human myelomonocytic leukemia (MV-4-11), human lung adenocarcinoma (A549), normal murine embryonic fibroblasts (BALB/3T3) and human lung microvascular endothelial (HLMEC). All the cell lines were obtained from the American Type Culture Collection (Rockville, MD, USA) except for LoVo and LoVo/DX, which were received from the Technical University of Gdańsk, Poland, courtesy of Prof. E. Borowski. All the cell lines were maintained in the Institute of Immunology and Experimental Therapy, Wroclaw, Poland. The cells were cultured in the following media: DMEM medium (BALB/3T3), Eagle medium (MCF-7, SK-BR-3, Du145), RPMI medium (HLMEC, MV-4-11) or RPMI 1640 + Opti-MEM (1:1) medium (A549, T47D, LoVo, LoVo/Dx, PC-3, HT-29). The DMEM medium was supplemented with 2 mM L-glutamine and 10% fetal bovine serum. The Eagle medium was supplemented with 4 mM L-glutamine, 10% fetal bovine serum, 1 mM sodium pyruvate for Du145 cells or 2 mM L-glutamine, 1% amino acids and 0.8 mg L^−1 of insulin for MCF-7 and SK-BR-3. The RPMI medium was supplemented with 2 mM L-glutamine, 1 mM sodium pyruvate and 10% fetal bovine serum. The RPMI 1640 + Opti-MEM (1:1) medium was supplemented with 2 mM L-glutamine, 5% fetal bovine serum (PC-3, A549) and 0.8 mg L^−1 insulin (T47D) or 1 mM sodium pyruvate (HT-29, LoVo, LoVoDx) and 0.1 ug/mL doxorubicin (LoVo/Dx). The media contained antibiotics: 100 µg mL^−1 streptomycin and 100 U mL^−1 penicillin. All the cell lines were incubated at 37 °C in a humid atmosphere saturated with 5% CO2.
# (§2) The details of this technique were described by Skehan et al.. After 72 h of incubation with the tested compounds, the cells were fixed in situ by gently adding cold 50% trichloroacetic acid—TCA (50 µL per well). The plates were incubated at 4 °C for 1 h and then washed five times with tap water and air-dried. Next, the cellular material fixed with TCA was stained by adding 50 µL of 0.4% sulforhodamine B dissolved in 1% acetic acid to each well and incubating the wells for 30 min at room temperature. The unbound dye was removed by washing the plates five times with 1% acetic acid, whereas the stain bound to the cells was extracted with 150 µL of 10 mM unbuffered Tris base for determination of the optical density at a 540 nm wavelength in a computer-interfaced, 96-well microtiter plate reader–Multiskan FC photometer (Thermo Scientific, Waltham, MA, USA). The background optical density was measured in the wells filled with culture medium, without the cells.
# (§3) Twenty-four hours before incubation with the tested compounds, the cells were seeded in 96-well plates (Sarstedt, Nümbrecht, Germany) at a density of 10^4 cells per well (10^3 cells per well for HLMEC) in 100 µL of culture medium. The analysis of the antiproliferative activity of the compounds was performed using sulforhothamine B (SRB) (for all the adherent cells) or 3-(4,5-dimethylthiazol-2-yl)-2,5-diphenyl tetrazolium bromide (MTT) (for the leukemia cells—MV-4-11). The details of this technique have been previously described by Skehan et al. and Antoszak et al.. An assay was performed after 72 h of exposure at varying concentrations (from 0.1 to 100 µg mL^−1) of xanthohumol (1), aurone (2) and the reference drug cisplatin. Each compound at each concentration was tested in a single experiment, which was repeated at least 3 times. […] The results were calculated as the IC50 (μM) (half maximal inhibitory concentration), i.e., the concentration of the tested agent that inhibits the proliferation of the cancer cell population by half. […]
# [2] = system: T47D human breast ductal carcinoma cells; test: In vitro antiproliferative assay (SRB), T47D; conditions: for IC50: Homo sapiens, T47D, 72 h exposure, SRB, mean ± SD; for Calculated selectivity index SIB: IC50 BALB/3T3/IC50 T47D; for Calculated selectivity index SIA: IC50 HLMEC/IC50 T47D
# Text: as §1, §2, §3
# [3] = system: MV-4-11 human myelomonocytic leukemia cells; test: In vitro antiproliferative assay (MTT), MV-4-11; conditions: for IC50: Homo sapiens, MV4-11, MV-4-11, 72 h exposure, MTT, mean ± SD; for Calculated selectivity index SIB: IC50 BALB/3T3/IC50 MV-4-11; for Calculated selectivity index SIA: IC50 HLMEC/IC50 MV-4-11
# Text: as §1
# The details of this technique were described by Antoszczak et al.. The proliferation inhibition of human myelomonocytic leukemia (MV-4-11) by the tested compounds was measured using the MTT assay. Thus, 20 µL of 3-(4,5-dimethylthiazol-2-yl)-2,5-diphenyl tetrazolium bromide solution was added to each well. Then, the plates were incubated for 4 h in a cell incubator to allow the cells to metabolize the yellow MTT to blue formazan. Next, 80 µL of lysing mixture (consisting of 67.5 g sodium dodecyl sulfate, 225 mL dimethylformamide and 275 mL distilled water) was added to each well. The plates were incubated for 24 h for the formazan crystals to be released from the cells and dissolved, and then the absorbance of each well was read on a 96-well microtiter plate reader (Multiskan FC photometer (Thermo Scientific)) at a 570 nm wavelength.
# Twenty-four hours before incubation with the tested compounds, the cells were seeded in 96-well plates (Sarstedt, Nümbrecht, Germany) at a density of 10^4 cells per well (10^3 cells per well for HLMEC) in 100 µL of culture medium. The analysis of the antiproliferative activity of the compounds was performed using sulforhothamine B (SRB) (for all the adherent cells) or 3-(4,5-dimethylthiazol-2-yl)-2,5-diphenyl tetrazolium bromide (MTT) (for the leukemia cells—MV-4-11). The details of this technique have been previously described by Skehan et al. and Antoszak et al.. An assay was performed after 72 h of exposure at varying concentrations (from 0.1 to 100 µg mL^−1) of xanthohumol (1), aurone (2) and the reference drug cisplatin. Each compound at each concentration was tested in a single experiment, which was repeated at least 3 times. […] The results were calculated as the IC50 (μM) (half maximal inhibitory concentration), i.e., the concentration of the tested agent that inhibits the proliferation of the cancer cell population by half. The IC50 values and the mean values ± SD calculated for each experiment separately using GraphPad Prism software (GraphPad Software 9.1.0, San Diego, CA, USA) are presented in Table S1 in the Supplementary Materials.
# [4] = system: normal murine embryonic fibroblasts (BALB/3T3); test: In vitro cytotoxicity against normal cells (SRB), BALB/3T3; conditions: BALB/3T3; for IC50: Mus musculus, BALB3T3 normal cell line, 72 h exposure, SRB, mean ± SD, read-out: Antiproliferative activity IC50
# Text: as §1
# The details of this technique were described by Skehan et al.. […] The unbound dye was removed by washing the plates five times with 1% acetic acid, whereas the stain bound to the cells was extracted with 150 µL of 10 mM unbuffered Tris base for determination of the optical density at a 540 nm wavelength in a computer-interfaced, 96-well microtiter plate reader–Multiskan FC photometer (Thermo Scientific, Waltham, MA, USA). The background optical density was measured in the wells filled with culture medium, without the cells.
# Twenty-four hours before incubation with the tested compounds, the cells were seeded in 96-well plates (Sarstedt, Nümbrecht, Germany) at a density of 10^4 cells per well (10^3 cells per well for HLMEC) in 100 µL of culture medium. […] The results were calculated as the IC50 (μM) (half maximal inhibitory concentration), i.e., the concentration of the tested agent that inhibits the proliferation of the cancer cell population by half. […]
# [5] = system: Du145 human prostate carcinoma cells; test: In vitro antiproliferative assay (SRB), Du145; conditions: for IC50: Homo sapiens, DU-145, Du145, 72 h exposure, SRB, mean ± SD; for Calculated selectivity index SIB: IC50 BALB/3T3/IC50 Du145; for Calculated selectivity index SIA: IC50 HLMEC/IC50 Du145
# Text: as §1, §2, §3
IC50 [1],IC50 [2],IC50 [3],IC50 [5],Compound,Calculated selectivity index SIB [1],Calculated selectivity index SIA [1],Calculated selectivity index SIB [2],Calculated selectivity index SIA [2],Calculated selectivity index SIB [3],Calculated selectivity index SIA [3],IC50 [4],Calculated selectivity index SIB [5],Calculated selectivity index SIA [5],reduction of cytotoxic effect against normal cells relative to xanthohumol (1) ([4]; p < 0.05)
10 ± 0.71 µM,8.27 ± 1.23 µM,8.07 ± 0.52 µM,10.3 ± 0.42 µM,"COc1cc(O)c(CC=C(C)C)c(O)c1C(=O)/C=C/c1ccc(O)cc1 [compound 1, 3′-[3″,3″-dimethylallyl]-2′,4′,4-trihydroxy-6′-methoxychalcone]",1.96,3.62,2.37,4.39,2.43,4.50,19.6 ± 2.95 µM,1.90,3.51,
16.6 ± 3.29 µM,8.09 ± 2.21 µM,7.45 ± 0.87 µM,14.7 ± 4.42 µM,"COc1cc(O)c(CC=C(C)C)c2c1C(=O)/C(=C/c1ccc(O)cc1)O2 [compound 2, (Z)-6,4′-dihydroxy-4-methoxy-7-prenylaurone]",2.68,3.18,5.50,6.53,5.97,7.09,44.5 ± 5.16 µM,3.02,3.59,2.3 fold
